Experiments:
PC-3 = assay: Anti-proliferative activity against human PC3 cells measured after 96 hrs by MTT assay; type: functional; conditions: PC-3, 96 h
LNCaP = assay: Anti-proliferative activity against human LNCAP cells measured after 96 hrs by MTT assay; type: functional
[1] = molecular target: Peptidyl-prolyl cis-trans isomerase NIMA-interacting 1 (Homo sapiens, UniProt Q13526); assay: Inhibition of Pin1 (unknown origin) using Suc-Ala-Glu-cis-Pro-Phe-4-nitroanilide as substrate preincubated for 30 mins followed by substrate addition measured for 90 secs by protease-enzyme coupled assay
Peptidyl-prolyl cis-trans isomerase NIMA-interacting 1, sequence (Q13526 whole entry): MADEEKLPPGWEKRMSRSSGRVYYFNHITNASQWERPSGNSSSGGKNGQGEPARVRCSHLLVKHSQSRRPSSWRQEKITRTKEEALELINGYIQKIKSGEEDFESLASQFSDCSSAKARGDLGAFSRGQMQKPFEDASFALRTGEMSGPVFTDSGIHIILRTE

GI50 (PC-3) [µM] | GI50 (LNCaP) [µM] | IC50 [1] [µM] | SMILES
4.65 | 3.78 |  | C[C@H]1[C@H](C)CC[C@]2(C)CC[C@]3(C)C(=CC(=O)[C@@H]4[C@@]5(C)C=C(I)C(=O)[C@](C)(C(=O)O)[C@@H]5CC[C@]43C)[C@H]12
1.07 | 2.18 | 9.6 | C[C@H]1[C@H](C)CC[C@]2(C)CC[C@]3(C)C(=CC(=O)[C@@H]4[C@@]5(C)C=C(C(F)(F)F)C(=O)[C@](C)(C(=O)N6CCNCC6)[C@@H]5CC[C@]43C)[C@H]12
2.64 | 3.29 |  | C[C@H]1[C@H](C)CC[C@]2(C)CC[C@]3(C)C(=CC(=O)[C@@H]4[C@@]5(C)C=C(C(F)(F)F)C(=O)[C@](C)(C(=O)N6CCCC6)[C@@H]5CC[C@]43C)[C@H]12
0.45 | 1.66 |  | C[C@H]1[C@H](C)CC[C@]2(C)CC[C@]3(C)C(=CC(=O)[C@@H]4[C@@]5(C)C=C(C#N)C(=O)[C@](C)(C(=O)OCc6ccccc6)[C@@H]5CC[C@]43C)[C@H]12
> 12.5 | > 12.5 |  | C[C@H]1[C@H](C)CC[C@]2(C)CC[C@]3(C)C(=CC(=O)[C@@H]4[C@@]5(C)C=CC(=O)[C@](C)(C(=O)OCc6ccccc6)[C@@H]5CC[C@]43C)[C@H]12
3.76 | 5.37 |  | C[C@H]1[C@H](C)CC[C@]2(C)CC[C@]3(C)C(=CC(=O)[C@@H]4[C@@]5(C)C=C(C#N)C(=O)[C@](C)(C(=O)N6CCCC6)[C@@H]5CC[C@]43C)[C@H]12
31.9 | 27.4 | 53 | CC(=O)O[C@@H]1CC[C@@]2(C)[C@@H](CC[C@]3(C)[C@@H]2C(=O)C=C2[C@@H]4[C@@H](C)[C@H](C)CC[C@]4(C)CC[C@]23C)[C@@]1(C)C(=O)O [AKBA]
> 12.5 | > 12.5 |  | C[C@H]1[C@H](C)CC[C@]2(C)CC[C@]3(C)C(=CC(=O)[C@@H]4[C@@]5(C)C=C(I)C(=O)[C@](C)(C(=O)N6CCCC6)[C@@H]5CC[C@]43C)[C@H]12
2.89 | 1.14 |  | C[C@H]1[C@H](C)CC[C@]2(C)CC[C@]3(C)C(=CC(=O)[C@@H]4[C@@]5(C)C=C(C#N)C(=O)[C@](C)(C(=O)N6CCCCC6)[C@@H]5CC[C@]43C)[C@H]12
5.11 | 3.92 |  | C[C@H]1[C@H](C)CC[C@]2(C)CC[C@]3(C)C(=CC(=O)[C@@H]4[C@@]5(C)C=C(C(F)(F)F)C(=O)[C@](C)(C(=O)OCc6ccccc6)[C@@H]5CC[C@]43C)[C@H]12
> 12.5 | > 12.5 |  | CC1CCN(C(=O)[C@@]2(C)C(=O)C(I)=C[C@]3(C)[C@H]4C(=O)C=C5[C@@H]6[C@@H](C)[C@H](C)CC[C@]6(C)CC[C@@]5(C)[C@]4(C)CC[C@@H]23)CC1
1.43 | 1.79 |  | C[C@H]1[C@H](C)CC[C@]2(C)CC[C@]3(C)C(=CC(=O)[C@@H]4[C@@]5(C)C=C(C(F)(F)F)C(=O)[C@](C)(C(=O)N6CCC(N7CCCCC7)CC6)[C@@H]5CC[C@]43C)[C@H]12
4.22 | 3.59 |  | C[C@H]1[C@H](C)CC[C@]2(C)CC[C@]3(C)C(=CC(=O)[C@@H]4[C@@]5(C)C=C(I)C(=O)[C@](C)(C(=O)N6CCC(N7CCCCC7)CC6)[C@@H]5CC[C@]43C)[C@H]12
2.07 | 3.82 |  | CC1CCN(C(=O)[C@@]2(C)C(=O)C(C#N)=C[C@]3(C)[C@H]4C(=O)C=C5[C@@H]6[C@@H](C)[C@H](C)CC[C@]6(C)CC[C@@]5(C)[C@]4(C)CC[C@@H]23)CC1
> 12.5 | > 12.5 |  | C[C@H]1[C@H](C)CC[C@]2(C)CC[C@]3(C)C(=CC(=O)[C@@H]4[C@@]5(C)C=C(I)C(=O)[C@](C)(C(=O)OCc6ccccc6)[C@@H]5CC[C@]43C)[C@H]12
4.38 | 4.26 |  | C[C@H]1[C@H](C)CC[C@]2(C)CC[C@]3(C)C(=CC(=O)[C@@H]4[C@@]5(C)C=C(C(F)(F)F)C(=O)[C@](C)(C(=O)O)[C@@H]5CC[C@]43C)[C@H]12
> 12.5 | > 12.5 |  | COC(=O)[C@@]1(C)C(=O)C(I)=C[C@]2(C)[C@H]3C(=O)C=C4[C@@H]5[C@@H](C)[C@H](C)CC[C@]5(C)CC[C@@]4(C)[C@]3(C)CC[C@@H]12
0.13 | 0.67 |  | C[C@H]1[C@H](C)CC[C@]2(C)CC[C@]3(C)C(=CC(=O)[C@@H]4[C@@]5(C)C=C(C#N)C(=O)[C@](C)(C(=O)N6CCC(N7CCCCC7)CC6)[C@@H]5CC[C@]43C)[C@H]12
2.48 | 4.71 |  | CC1CCN(C(=O)[C@@]2(C)C(=O)C(C(F)(F)F)=C[C@]3(C)[C@H]4C(=O)C=C5[C@@H]6[C@@H](C)[C@H](C)CC[C@]6(C)CC[C@@]5(C)[C@]4(C)CC[C@@H]23)CC1
> 12.5 | > 12.5 |  | COC(=O)[C@@]1(C)C(=O)C=C[C@]2(C)[C@H]3C(=O)C=C4[C@@H]5[C@@H](C)[C@H](C)CC[C@]5(C)CC[C@@]4(C)[C@]3(C)CC[C@@H]12
0.18 | 0.7 |  | C[C@H]1[C@H](C)CC[C@]2(C)CC[C@]3(C)C(=CC(=O)[C@@H]4[C@@]5(C)C=C(C#N)C(=O)[C@](C)(C(=O)O)[C@@H]5CC[C@]43C)[C@H]12
3.36 | 2.98 | 4.29 | C[C@H]1[C@H](C)CC[C@]2(C)CC[C@]3(C)C(=CC(=O)[C@@H]4[C@@]5(C)C=C(I)C(=O)[C@](C)(C(=O)N6CCNCC6)[C@@H]5CC[C@]43C)[C@H]12
> 12.5 | > 12.5 |  | C[C@H]1[C@H](C)CC[C@]2(C)CC[C@]3(C)C(=CC(=O)[C@@H]4[C@@]5(C)C=C(I)C(=O)[C@](C)(C(=O)N6CCCCC6)[C@@H]5CC[C@]43C)[C@H]12
3.78 | 7.82 |  | COC(=O)[C@@]1(C)C(=O)C(C(F)(F)F)=C[C@]2(C)[C@H]3C(=O)C=C4[C@@H]5[C@@H](C)[C@H](C)CC[C@]5(C)CC[C@@]4(C)[C@]3(C)CC[C@@H]12
3.27 | 3.21 |  | C[C@H]1[C@H](C)CC[C@]2(C)CC[C@]3(C)C(=CC(=O)[C@@H]4[C@@]5(C)C=C(C(F)(F)F)C(=O)[C@](C)(C(=O)N6CCCCC6)[C@@H]5CC[C@]43C)[C@H]12
1.2 | 2.34 |  | COC(=O)[C@@]1(C)C(=O)C(C#N)=C[C@]2(C)[C@H]3C(=O)C=C4[C@@H]5[C@@H](C)[C@H](C)CC[C@]5(C)CC[C@@]4(C)[C@]3(C)CC[C@@H]12

Reference: ChEMBL document CHEMBL4000186, “Design and synthesis of novel 2-substituted 11-keto-boswellic acid heterocyclic derivatives as anti-prostate cancer agents with Pin1 inhibition ability” (Eur J Med Chem, 2017)
